The numbers were not newly measured in patent US20250205506A1, “Treatment of viral infection” (priority 2023, published 2025), which cites them from elsewhere.

Series [1] relates to recurrent herpes labialis. Particulars: for Reduction of healing time: tablets, otherwise healthy people.
For series [2], the system named is herpes infections. As to conditions: orally administered; red light from a HeNe laser.
In series [3] the test system is herpes zoster. Particulars: intravenously administered; golden light (565 nm yellow + 630 nm red) or red light to the affected area.

Regarding `Nc1nc2c(ncn2COCCO)c(=O)[nH]1` [acyclovir, 9-(2-hydroxyethoxymethyl) guanine], in series [1], the “Reduction of healing time” value is given as “reduce healing time by about one day”. Further, the “Combined effect with red light compared to acyclovir alone” value in series [2] is reported as “improvements over acyclovir alone”. The “Combined effect with light compared to acyclovir alone” value in series [3] was “improvement over acyclovir alone”.

For the molecule `CC(C)[C@H](N)C(=O)OCCOCn1cnc2c(=O)[nH]c(N)nc21` [valacyclovir], the “Reduction of healing time” value in series [1] is given as “reduce healing time by about one day”. In addition, in series [1] (taken once daily), the “Preventative treatment of herpes” value was “effective preventative treatment for herpes reducing frequency and severity of outbreaks”.

For `CC(=O)OCC(CCn1cnc2cnc(N)nc21)COC(C)=O` [famciclovir], the “Reduction of healing time” value in series [1] is listed as “reduce healing time by about one day”.
